Data as given in US20120088746A1, “AMIDE DERIVATIVES AS ION-CHANNEL LIGANDS AND PHARMACEUTICAL COMPOSITIONS AND METHODS OF USING THE SAME” (PFIZER INC., priority 2006, published 2012).
Structures can show the parent of a compound that is named as a salt.

Each molecule was assayed against human VR1 (Homo sapiens, UniProt Q8NER1) (assay: Acid stimulation assay (acid-induced intracellular calcium change, FDSS 6000)). Details: final assay buffer pH5.8, 15 min pre-incubation, read-out: IC50 (nM) Low pH.
human VR1, sequence (Q8NER1 whole entry): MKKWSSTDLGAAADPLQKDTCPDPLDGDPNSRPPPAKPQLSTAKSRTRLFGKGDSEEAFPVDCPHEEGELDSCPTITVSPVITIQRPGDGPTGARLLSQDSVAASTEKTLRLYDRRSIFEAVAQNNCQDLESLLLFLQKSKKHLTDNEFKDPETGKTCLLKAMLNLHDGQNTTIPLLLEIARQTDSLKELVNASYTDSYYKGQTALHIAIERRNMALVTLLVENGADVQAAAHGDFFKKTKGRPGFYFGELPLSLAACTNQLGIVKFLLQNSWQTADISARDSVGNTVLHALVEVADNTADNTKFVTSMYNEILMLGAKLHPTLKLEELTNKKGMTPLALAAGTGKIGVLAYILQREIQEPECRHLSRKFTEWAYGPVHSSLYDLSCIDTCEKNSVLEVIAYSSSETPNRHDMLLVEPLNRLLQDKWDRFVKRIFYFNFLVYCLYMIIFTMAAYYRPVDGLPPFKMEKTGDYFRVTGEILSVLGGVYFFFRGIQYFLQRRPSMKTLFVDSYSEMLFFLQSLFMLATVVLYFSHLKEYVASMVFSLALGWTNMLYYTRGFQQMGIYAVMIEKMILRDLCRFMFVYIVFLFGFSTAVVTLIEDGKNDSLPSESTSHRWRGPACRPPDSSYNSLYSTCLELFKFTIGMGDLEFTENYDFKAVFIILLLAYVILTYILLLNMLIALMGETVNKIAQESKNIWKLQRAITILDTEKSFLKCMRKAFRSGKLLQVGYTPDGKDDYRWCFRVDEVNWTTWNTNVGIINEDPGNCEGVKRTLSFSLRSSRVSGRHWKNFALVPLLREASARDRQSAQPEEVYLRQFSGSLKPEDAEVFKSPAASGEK
Format: cell-based
From the text: VR1 antagonistic activity can be determined by the Ca^2+ imaging assay using human VR1 highly expressing cells. The cells that highly express human VR1 receptors are obtainable from several different conventional methods. The one standard method is cloning from human Dorsal Root Ganglion (DRG) or kidney according to the methods such as described in the journal article; Nature, 389, pp 816-824, 1997. Alternatively VR1 receptors highly expressing human keratinocytes are also known and published in the journal article (Biochemical and Biophysical Research Communications, 291, pp 124-129, 2002). […] Furthermore, the method to up regulate human VR1 gene, which is usually a silent gene or don't produce detectable level of VR1 receptors, is also available to obtain propriety cells. Such genetic modification method was described in detail; Nat. Biotechnol., 19, pp 440-445, 2001.
The cells that express human VR1 receptors were maintained in culture flask at 37° C. in an environment containing 5% CO2 until use in the assay. The intracellular Ca^2+ imaging assay to determine VR1 antagonistic activities were done by following procedures.
The culture medium was removed from the flask and fura-2/AM fluorescent calcium indicator was added to the flask at a concentration of 5 μM in the medium. The flask was placed in CO2 incubator and incubated for 1 hour. Then the cells expressing the human VR1 receptors were detached from the flask follow by washing with phosphate buffer saline, PBS(−) and re-suspended in assay buffer. The 80 tit of aliquot of cell suspension (3.75×10^5 cells/ml) was added to the assay plate and the cells were spun down by centrifuge (950 rpm, 20° C., 3 minutes).
(§1) The Acid-induced changes in the intracellular calcium concentration were monitored using FDSS 6000 (Hamamatsu Photonics, Japan), a fluorometric imaging system. The cell suspension in resting buffer (HBSS supplemented with 10 mM HEPES, pH 7.4) were pre-incubated with varying concentrations of the test compounds or resting buffer (buffer control) for 15 minutes at room temperature under the dark condition. The cells were automatically added the stimulating solution (HBSS supplemented with MES, final assay buffer pH5.8) by the FDSS 6000.
as §1, with “7.4) was” for “7.4) were”, “under” for “under the”, “dark conditions.” for “dark condition.”, “added to” for “added”

SMILES | IC50 [nM]
Cc1cc([C@@H](C)NC(=O)c2ccc3cc(C(C)(C)C)ccc3c2)ccc1NS(C)(=O)=O [Example 1, 6-TERT-BUTYL-N-((1R)-1-{3-METHYL-4-[(METHYLSULFONYL)AMINO]PHENYL}ETHYL)-2-NAPHTHAMIDE] | 3
Cc1nc([C@@H](C)NC(=O)c2ccc3cc(C(C)(C)C)ccc3c2)ccc1NS(C)(=O)=O [Example 2, 6-TERT-BUTYL-N-((1R)-1-{6-METHYL-5-[(METHYLSULFONYL)AMINO]PYRIDIN-2-YL}ETHYL)-2-NAPHTHAMIDE] | 4
C[C@@H](NC(=O)c1ccc2cc(C(F)(F)F)ccc2n1)c1cc(F)c(NS(C)(=O)=O)c(F)c1 [Example 3, ((1R)-1-{3,5-DIFLUORO-4-[(METHYLSULFONYL)AMINO]PHENYL}ETHYL)-6-(TRIFLUORO-METHYL)QUINOLINE-2-CARBOXAMIDE] | 4
Cc1cc([C@@H](C)NC(=O)c2cnc3cc(C(F)(F)F)ccc3c2)ccc1NS(C)(=O)=O [Example 4, (1R)-1-{3-METHYL-4-[(METHYLSULFONYL)AMINO]PHENYL}ETHYL)-7-(TRIFLUOROMETHYL)QUINOLINE-3-CARBOXAMIDE] | 100
C[C@@H](NC(=O)c1ccc2cc(C(C)(C)C)ccc2n1)c1cc(F)c(NS(C)(=O)=O)c(F)c1 [Example 7, 6-TERT-BUTYL-N-((1R)-1-{3,5-DIFLUORO-4-[(METHYLSULFONYL)AMINO]PHENYL}-ETHYL)QUINOLINE-2-CARBOXAMIDE] | 1
Cc1cc([C@@H](C)NC(=O)c2ccc3cc(C(C)C)ccc3n2)ccc1NS(C)(=O)=O [Example 9, 6-ISOPROPYL-N-((1R)-1-{3-METHYL-4-[(METHYLSULFONYL)AMINO]PHENYL}ETHYL)-QUINOLINE-2-CARBOXAMIDE] | 714
Cc1cc([C@@H](C)NC(=O)c2cnc3cc(C(F)(F)F)ccc3c2C)ccc1NS(C)(=O)=O [Example 11, 4-METHYL-N-((1R)-1-{3-METHYL-4-[(METHYLSULFONYL)AMINO]PHENYL}ETHYL)-7-(TRIFLUOROMETHYL)QUINOLINE-3-CARBOXAMIDE] | 240
Cc1cc([C@@H](C)NC(=O)c2ccc3cc(Br)ccc3n2)ccc1NS(C)(=O)=O [Example 12, 6-BROMO-N-((1R)-1-{3-METHYL-4-[(METHYLSULFONYL)AMINO]PHENYL}ETHYL)-QUINOLINE-2-CARBOXAMIDE] | 444
Cc1cc([C@@H](C)NC(=O)c2ccc3cc(C(C)(C)C)ccc3c2)c(F)cc1NS(C)(=O)=O [Example 13, 6-TERT-BUTYL-N-((1R)-1-{2-FLUORO-5-METHYL-4-[(METHYLSULFONYL)AMINO]PHENYL}-ETHYL)-2-NAPHTHAMIDE] | 127
Cc1cc([C@@H](C)NC(=O)c2ccc3cc(C(C)(C)C)ccc3n2)c(F)cc1NS(C)(=O)=O [Example 14, 6-TERT-BUTYL-N-((1R)-1-{2-FLUORO-5-METHYL-4-[(METHYLSULFONYL)AMINO]PHENYL}-ETHYL)QUINOLINE-2-CARBOXAMIDE] | 288
C[C@@H](NC(=O)c1ccc2nc(C(C)(C)C)ccc2c1)c1cc(F)c(NS(C)(=O)=O)c(F)c1 [Example 15, 2-TERT-BUTYL-N-((1R)-1-{3,5-DIFLUORO-4-[(METHYLSULFONYL)AMINO]PHENYL}ETHYL)-QUINOLINE-6-CARBOXAMIDE HYDROCHLORIDE] | 24
Cc1cc([C@@H](C)NC(=O)c2ccc3cc(C(C)(C)O)ccc3n2)ccc1NS(C)(=O)=O [Example 16] | 71
Cc1cc([C@@H](C)NC(=O)c2ccc3cc(Br)ccc3c2)ccc1NS(C)(=O)=O [Example 17, 6-BROMONAPHTHALENE-2-CARBOXYLIC ACID [(R)-1-(4-METHANESULFONYLAMINO-3-METHYLPHENYL)ETHYL]AMIDE] | 14
Cc1cc([C@@H](C)NC(=O)c2ccc3cc(F)ccc3c2)ccc1NS(C)(=O)=O [Example 18, 6-FLUORONAPHTHALENE-2-CARBOXYLIC ACID [(R)-1-(4-METHANESULFONYL-AMINO-3-METHYLPHENYL)ETHYL]AMIDE] | 83
Cc1cc([C@@H](C)NC(=O)c2ccc3ccccc3c2)ccc1NS(C)(=O)=O [Example 19, NAPHTHALENE-2-CARBOXYLIC ACID [(R)-1-(4-METHANESULFONYLAMINO-3-METHYLPHENYL)ETHYL]AMIDE] | 63
COc1ccc2cc(C(=O)N[C@H](C)c3ccc(NS(C)(=O)=O)c(C)c3)ccc2c1 [Example 20, 6-METHOXYNAPHTHALENE-2-CARBOXYLIC ACID [(R)-1-(4-METHANESULFONYL-AMINO-3-METHYLPHENYL)ETHYL]AMIDE] | 8
Cc1cc([C@@H](C)NC(=O)c2ccc3cc(N4CCCC4)ccc3c2)ccc1NS(C)(=O)=O [Example 21, 6-PYRROLIDIN-1-YL-NAPHTHALENE-2-CARBOXYLIC ACID [(R)-1-(4-METHANESULFONYL-AMINO-3-METHYLPHENYL)ETHYL]AMIDE] | 44
Cc1cc([C@@H](C)NC(=O)c2ccc3cc(C4CC4)ccc3c2)ccc1NS(C)(=O)=O [Example 22, 6-CYCLOPROPYLNAPHTHALENE-2-CARBOXYLIC ACID [(R)-1-(4-METHANESULFONYL-AMINO-3-METHYLPHENYL)ETHYL]AMIDE] | 3
Cc1cc([C@@H](C)NC(=O)c2cc3ccc(Cl)cc3nc2C)ccc1NS(C)(=O)=O [Example 23, 7-CHLORO-2-METHYL-QUINOLINE-3-CARBOXYLIC ACID [(R)-1-(4-METHANESULFONYL-AMINO-3-METHYLPHENYL)ETHYL]AMIDE] | 379
C[C@@H](NC(=O)c1cnc2cc(C(F)(F)F)ccc2c1)c1cc(F)c(NS(C)(=O)=O)c(F)c1 [Example 27, N-((1R)-1-{3,5-DIFLUORO-4-[(METHYLSULFONYL)AMINO]PHENYL}ETHYL)-7-(TRIFLUOROMETHYL)QUINOLINE-3-CARBOXAMIDE] | 105
CC(=O)c1ccc2nc(C(=O)N[C@H](C)c3ccc(NS(C)(=O)=O)c(C)c3)ccc2c1 [Example 28, 6-ACETYL-N-((1R)-1-{3-METHYL-4-[(METHYLSULFONYL)AMINO]PHENYL}ETHYL)-QUINOLINE-2-CARBOXAMIDE] | 187
Cc1cc([C@@H](C)NC(=O)c2cnc3ccc(C(C)(C)C)cc3c2)ccc1NS(C)(=O)=O [Example 29, 6-TERT-BUTYL-N-((1R)-1-{3-METHYL-4-[(METHYLSULFONYL)AMINO]PHENYL}ETHYL)-QUINOLINE-3-CARBOXAMIDE] | 231
CC(C)c1ccc2cc(C(=O)N[C@H](C)c3cc(F)c(NS(C)(=O)=O)c(F)c3)ccc2n1 [Example 31, N-((1R)-1-{3,5-DIFLUORO-4-[(METHYLSULFONYL)AMINO]PHENYL}ETHYL)-2-ISOPROPYL-QUINOLINE-6-CARBOXAMIDE] | 47
Cc1cc([C@@H](C)NC(=O)c2ccc3nc(C(F)(F)F)ccc3c2)c(F)cc1NS(C)(=O)=O [Example 32, N-((1R)-1-{2-FLUORO-5-METHYL-4-[(METHYLSULFONYL)AMINO]PHENYL}ETHYL)-2-(TRIFLUOROMETHYL)QUINOLINE-6-CARBOXAMIDE] | 6
Cc1cc([C@@H](C)NC(=O)c2cnc3cc(C(C)(C)C)ccc3c2)ccc1NS(C)(=O)=O [Example 33, 7-TERT-BUTYL-N-((1R)-1-{3-METHYL-4-[(METHYLSULFONYL)AMINO]PHENYL}ETHYL)-QUINOLINE-3-CARBOXAMIDE] | 56
C[C@@H](NC(=O)c1cnc2cc(C(F)(F)F)ccc2c1)c1ccc(NS(C)(=O)=O)c(F)c1 [Example 34, N-((1R)-1-{3-FLUORO-4-[(METHYLSULFONYL)AMINO]PHENYL}ETHYL)-7-(TRIFLUORO-METHYL)QUINOLINE-3-CARBOXAMIDE] | 26
Cc1cc([C@@H](C)NC(=O)c2ccc3nc(C(C)C)ccc3c2)ccc1NS(C)(=O)=O [Example 35, 2-ISOPROPYL-N-((1R)-1-{3-METHYL-4-[(METHYLSULFONYL)AMINO]PHENYL}ETHYL)-QUINOLINE-6-CARBOXAMIDE] | 5
CC(C)c1ccc2cc(C(=O)N[C@H](C)c3cc(F)c(NS(C)(=O)=O)c(F)c3)cnc2c1 [Example 39, N-((1R)-1-{3,5-DIFLUORO-4-[(METHYLSULFONYL)AMINO]PHENYL}ETHYL)-7-ISOPROPYL-QUINOLINE-3-CARBOXAMIDE] | 13
Cc1cc([C@@H](C)NC(=O)c2ccc3cc(C(C)(C)C)ccc3c2)ncc1NS(C)(=O)=O [Example 40, 6-TERT-BUTYL-N-((1R)-1-{4-METHYL-5-[(METHYLSULFONYL)AMINO]PYRIDIN-2-YL}ETHYL)-2-NAPHTHAMIDE] | 31
C[C@@H](NC(=O)c1cnc2cc(C(C)(C)C)ccc2c1)c1ccc(NS(C)(=O)=O)cc1 [Example 41, 7-TERT-BUTYL-N-((1R)-1-{4-[(METHYLSULFONYL)AMINO]PHENYL}ETHYL)QUINOLINE-3-CARBOXAMIDE] | 29
